In patent US20020132823A1, “Assay method” (priority 2001, published 2002) one finds IC50 and inhibition data, which are given here for one compound.

Data set [1] deals with IL-1β release from human peripheral blood mononuclear cells. The experiment in a line: IL-1β release from human PBMCs (LPS/γ-interferon stimulated, ELISA). In kind it is cell-based. To be noted: PBMC, LPS 5 μg/ml + γ-interferon 100 U/ml, 4.5 hours. As for the experimental part:
(§1) 2. TNFα and IL-1 Release from Human PBMCs
(§2) Cell Separation and Culture
All cell culture and ELISA work was done on 96 well plates (Costar). Mononuclear cells were prepared from the blood of healthy volunteers using ficoll-hypaque density separation according to the method of Hansel et al (Hansel TT et al. (1991) An improved immunomagnetic procedure for the isolation of highly purified human blood eosinophils. J. Imm. Methods 145, 105-110) and used at a concentration of 100,000 cells/well in RPMI 1640, 5% FCS (Gibco). Serial dilution of the test compound were made in DMSO and diluted with culture medium. Final DMSO concentration in the culture medium was 0.1%. Compound were preincubated with the cells for 30 minutes at 37° C., 5% CO2. Then, the cells were stimulated with LPS (5 μg/ml, Sigma) and γ-interferon (100 U/ml, Boehringer Mannheim) and cultured for 3 hours (for TNFα-determination) or 4.5 hours (for Il-1 β and Il-6 determination). […]
ELISA microtiter plates were coated with a murine anti-human IL-1^2 MAb (Human IL-1^2 Cytoset (Biosource International Inc., #CHC1214), 100 μl at 1 μg/ml) in PBS 0.02% NaN3 and incubated overnight at +4° C., The following day, microtiter plates were washed 4 times with PBS/0.05% Tween/0.02% NaN3 and blocked with 300 μl of PBS/2% bovine serum albumin (BSA)/0.02% NaN3 for 3 h. […] Plates were read in a microtiter reader (Bio-Rad) using filters of 405 and 490 nm.

Data set [2] can be described thus: Cytotoxicity in THP-1 cells (MTT). In kind it is cell-based. To be noted: human, THP-1 cells stimulated with LPS/IFNγ, LPS/IFN stimulated. As for the experimental part: THP-1 cells are obtained from ATCC and stored in liquid nitrogen. Medium for growth of THP-1 cells: RPMI 1640(GIBCO)+10% fetal bovine serum (GIBCO)+L-glutamine (2 mM)+penicillin/streptomycin (100 U/ml) +β-mercaptoethanol (0.05 mM). Cell culture medium for THP-1 incubation: RPMI 1640(GIBCO)+5% fetal bovine serum (GIBCO)+L-glutamine (2 mM)+penicillin/streptomycin (100 U/ml)+β-mercaptoethanol (0.05 mM).
The solution for stimulation is prepared by mixing equal volumes of IFNγ (Boehringer Mannheim, 2000 U/ml) and LPS (Sigma, L8274, 100 μg/ml). The dye solution is prepared from 500 mg MTT (Sigma, M2128) in 100 ml phosphate buffered saline (PBS) and kept under sterile conditions at 4° C. Sodium dodecyl sulfate (SDS) solution (10%) is made from 50 g SDS (Bioprobe Systems) and 5 ml 1N HCl. The solution is made up to 500 ml with distilled water and kept at room temperature (precipitates in the fridge). All incubations are done at 37° C. in 5% CO2. […]
The absorbance at 540 nm is read with a microplate reader (Biotec 808 Elx). […]
Calculation of cytotoxicity: The absorbance corresponding to 100% cytotoxicity equals the absorbance of wells without cells (no MTT converted into the blue dye). The absorbance corresponding to no cytotoxicity is taken from wells without substance, but with control solvent. Percent cytotoxicity is calculated for each substance concentration.

Data set [3] has as its system TNFα release from human peripheral blood mononuclear cells. The experiment in a line: TNFα release from human PBMCs (LPS/γ-interferon stimulated, ELISA). In kind it is cell-based. To be noted: PBMC, LPS 5 μg/ml + γ-interferon 100 U/ml, 3 hours. As to the method:
as §1, §2
All cell culture and ELISA work was done on 96 well plates (Costar). Mononuclear cells were prepared from the blood of healthy volunteers using ficoll-hypaque density separation according to the method of Hansel et al (Hansel TT et al. (1991) An improved immunomagnetic procedure for the isolation of highly purified human blood eosinophils. J. Imm. Methods 145, 105-110) and used at a concentration of 100,000 cells/well in RPMI 1640, 5% FCS (Gibco). Serial dilution of the test compound were made in DMSO and diluted with culture medium. Final DMSO concentration in the culture medium was 0.1%. […]
For ELISA determination, supernatants were diluted 1:1 and added into a plate coated with the anti humanTNF monoclonal antibody (357-101-4, clone 92030603 from European Collection of Animal Cell Cultures, antibody produced and purified within Novartis Pharma, 1 μg/ml in PBS) After overnight incubation, the plates were washed (4×) and biotinylated anti humanTNF monoclonal antibody 2-179-E11 (clone 92030602 (European Collection of Animal Cell Cultures), produced and purified in Novartis Pharma) was added to a final concentration of 1 μg/ml (100 μl/well). […] Color formation was monitored in a Bio-Tec ELx 808 plate reader at 405 nm in the kinetic mode for 30 minutes. […]
(In general: An ELISA detects its analyte on a solid surface through an enzyme-linked reagent.)

For data set [4], the system named is IL-6 production in human dermal fibroblasts. The experiment in a line: IL-6 production in human dermal fibroblasts (IL-1β stimulated, ELISA). It counts as cell-based. Conditions: Fibroblast, 1 μM compound, IL-1β 100 pg/ml, 16-17 h. As to the method: 4. IL-6 Production in Human Dermal Fibroblasts
Human dermal foreskin fibroblasts were obtained from Clonetics (CC-2509) and grown in FBM (Clonetics, CC-3131 ) including bFGF (1 ng/ml, CC-4065), insulin (5 μg/ml, CC-4021), and 2% FCS (CC-4101).
For induction of IL-6, cells were seeded at a density of 10^4 cells per well in a 48 well tissue cluster. The following day, cells were starved for 6-7 h in FBM containing 2% FCS. Compounds were added at final concentrations of 10 and 1 μM 30 min prior to stimulation with recombinant human IL-1β (100 pg/ml).
Cell supernatant was taken 16-17 h after stimulation and the amount of released IL-6 determined in a sandwich ELISA.
ELISA microtiter plates were coated with a murine anti-human IL-6 MAb (314-14 (Novartis Pharma; batch EN23,961, 5.5 mg/ml); 100 μl at 3 μg/ml) in PBS 0.02% NaN3 and incubated overnight at +4° C., The following day, microtiter plates were washed 4 times with PBS/0.05% Tween/0.02% NaN3 and blocked with 300 μl of PBS/3% bovine serum albumin (BSA)/0.02% NaN3 for 3 h. […] Plates were read in a microtiter reader (Bio-Rad) using filters of 405 and 490 nm. IL-6 levels in culture supernatants were calculated in reference to the standard curve using the cubic curve fit. Percentage inhibitions and IC50 values were calculated

The target in the next data set is T1, Recombinant human Prak (Homo sapiens, UniProt Q8IW41).
T1 construct: His6; made in house; host or cells: E. coli
T1 sequence (Q8IW41 1-471 isoform Q8IW41-2): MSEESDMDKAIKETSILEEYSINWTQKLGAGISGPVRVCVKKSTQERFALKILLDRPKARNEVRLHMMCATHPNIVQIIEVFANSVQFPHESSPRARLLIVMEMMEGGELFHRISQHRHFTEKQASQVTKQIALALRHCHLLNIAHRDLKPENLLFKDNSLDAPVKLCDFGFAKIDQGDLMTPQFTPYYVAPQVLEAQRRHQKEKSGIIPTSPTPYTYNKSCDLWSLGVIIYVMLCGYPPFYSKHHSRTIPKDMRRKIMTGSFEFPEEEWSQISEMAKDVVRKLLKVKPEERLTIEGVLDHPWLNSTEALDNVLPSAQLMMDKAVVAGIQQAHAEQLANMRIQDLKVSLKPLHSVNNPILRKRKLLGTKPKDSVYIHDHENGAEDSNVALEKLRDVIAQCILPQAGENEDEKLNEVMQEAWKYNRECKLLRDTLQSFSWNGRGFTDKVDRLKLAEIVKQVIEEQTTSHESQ
The experiment in a line: In vitro kinase assay Prak (HSP27 phosphorylation, 33P-ATP). It counts as biochemical. To be noted: activated recombinant human Prak, His-HSP27 substrate, 1 h at room temperature. As to the method: Recombinant human Prak was expressed in E. coli as His6-tagged protein substantially as described for Mnk1 by Tschopp et al. (Tschopp et al. (2000) Phoshorylation of eIF-4E on Ser 209 in response to mitogenic and inflammatory stimuli is faithfully detected by specific antibodies. Molecular Cell Biology Res. Comm. 3, 205-211). Phospho-p38a and His6-Hsp27 was prepared substantially as described (New et al. and Tschopp et al. ibid). All kinase reactions were performed with the following reaction buffer. Kinase buffer (5×): 125 mM Hepes (Stock at 1M; Gibco #15630-056), 125 mM β-glycerophosphate (Sigma #G-6251):125 mM MgCl2 (Merck #5833); 0.5 mM Sodium orthovanadate (Sigma #5-6508), 10 mM DTT (Boehringer Mannheim #708992), pH 7.4. The (5×) kinase buffer is freshly prepared from 25× stock solution. DTT is stored frozen at −20° C. in small aliquots and added immediately before use.
Prior to the assay, recombinant Prak is phosphorylated by incubation with phospho-p38. […]
The assay is stopped after one hour of incubation at room temperature by the addition of 5 μl EDTA 0.5M. […] After washing and drying the membrane, incorporated label is quantified by liquid scintillation counting.

As usually defined, the IC50 is the concentration at which inhibition is half-maximal. What is called inhibition is the change of the read-out against control, counted positive when it falls. A low value points to a weak effect.

Molecules are shown by their SMILES.

On to `O=S(=O)(c1ccc(Nc2nccc(N3CCCc4c(O)cccc43)n2)cc1)N1CCCCC1` [Compound A], for which the IC50 in data set [1] came out at 1100 nM; in data set [3] it was 2200 nM; at Recombinant human Prak, 1100 nM. The IC50 at 24 h in data set [2] was over 30000 nM. In data set [4], this compound showed an inhibition at 1 µM of 100%.
